Patent EP0915099A1, “Antiparallel oligopeptides and hydrophobically complementary oligopeptides, matrices containing them and use thereof in the purification and detection of subtypes of alpha interferon” (ALFA WASSERMANN S.p.A., priority 1997, dated 1999)

System: subtypes of Hu-IFNα
Assay: affinity of the peptides in solution and bound to solid supports (affinity chromatography)
Type: binding, human
Conditions: both in solution and bound to solid supports
From the text: Therefore they can be used, when bound to suitable matrices on solid supports, in affinity chromatography for the separation and purification of the subtype Hu-IFNα8. Moreover, when conveniently functionalized, they can be used for the specific detection of Hu-IFNα8 in analytical techniques like the detection of compounds splitted in SDS-PAGE and transferred on nitrocellulose sheets (SDS-PAGE-blotting) or the detection of compounds immobilized on solid supports (enzyme linked immuno sorbent assay or ELISA). Therefore the matrices on solid supports for the affinity chromatography to which the IFNα-AP, IFNω-AP, IFNα-IC and IFNω-IC oligopeptides are linked and the use thereof in the separation and purification of the Hu-IFNα8 protein are a further object of the invention.
Each of the peptides from number 1 to number 6, at the end of the synthesis, has been linked to a solid support useful for affinity chromatographies, preferably made by a polymeric resin based on acrylamide or agarose, and each matrix functionalized in this way has been packed on a chromatographic column on which, at a neutral pH, a mixture of Hu-IFNα having a specific activity between 1 e 100 x 10^5 international units for each milligram of total proteins (IU/mg) and with a Hu-IFNα concentration between 0.1 and 5 x 10^6 IU has been pressed through. […]

Substance	affinity for subtypes of Hu-IFNα
H-Gly-Phe-His-Asp-Phe-His-Ser-Asp-Asn-Phe-OH (H-GFHDFHSDNF-OH) [IFNω-AP]	only for some subtypes of Hu-IFNα, mainly for the subtype IFNα8
H-Gly-Ser-His-Asp-Phe-Cys-Ser-Asp-Asn-Leu-OH (H-GSHDFCSDNL-OH) [IFNα-AP]	only for some subtypes of Hu-IFNα, mainly for the subtype IFNα8
